Results on three compounds are retold here after US4598084A, “Optically active derivatives of N-arylated oxazolidine-2-one, the process for preparing same and their application in therapeutics” (Delalande S.A., priority 1982, dated 1986).

Molecules are shown by their SMILES. Where two headings read alike, the source gives them in different places.

The target in data set [1] is T1, type B monoamine oxidase (MAO.B) (Rattus norvegicus, UniProt P19643).
T1 construct: the brains being removed, weighed, homogeneized; from tissue; host or cells: brain of orally dosed rats, homogenized
T1 sequence (P19643 1-520): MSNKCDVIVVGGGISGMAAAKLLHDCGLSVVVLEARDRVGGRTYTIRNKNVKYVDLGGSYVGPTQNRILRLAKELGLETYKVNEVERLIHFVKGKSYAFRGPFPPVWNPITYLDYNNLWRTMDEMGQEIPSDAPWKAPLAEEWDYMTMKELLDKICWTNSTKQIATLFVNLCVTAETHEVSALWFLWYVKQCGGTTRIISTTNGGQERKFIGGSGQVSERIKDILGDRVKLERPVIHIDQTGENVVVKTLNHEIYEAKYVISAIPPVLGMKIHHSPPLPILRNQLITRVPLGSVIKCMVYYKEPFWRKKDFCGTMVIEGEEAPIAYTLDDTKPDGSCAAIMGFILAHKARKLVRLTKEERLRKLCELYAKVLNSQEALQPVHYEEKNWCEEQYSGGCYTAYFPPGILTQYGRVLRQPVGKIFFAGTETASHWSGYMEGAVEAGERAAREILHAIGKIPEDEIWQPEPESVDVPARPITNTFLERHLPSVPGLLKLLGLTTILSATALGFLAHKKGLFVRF
Kind of data set: in vitro MAO.B inhibition on homogenized rat brain, phenylethylamine (PEA) substrate. The class given is biochemical, rats. The note with it: Table 1, rat brain homogenate, read-out: MAO.B inhibition effect (P.E.A.) IC 50. From the text:
(§1) in vitro, on the homogeneized brain of rats, by measuring the dose inhibiting by 50% (IC 50) the activity of monoamine oxidase (MAO) by taking phenylethylamine (PEA) as substrate of type B monoamine oxidase (MAO.B) and serotonine (5-HT) as substrate of type A monoamine oxidase (MAO.A), according to the procedure described by M. STROLIN BENEDETTI et al. in: Monoamine oxidase Basic and Clinical Frontiers, publishers K. KAMISO-E. USDIN-T. NAGATSO-Excepta Medica (1982)-page 209);

Data set [2] deals with T2, type A monoamine oxidase (MAO.A) (Rattus norvegicus, UniProt P21396).
T2 construct: the brains being removed, weighed, homogeneized; from tissue; host or cells: brain of orally dosed rats, homogenized
T2 sequence (P21396 1-526): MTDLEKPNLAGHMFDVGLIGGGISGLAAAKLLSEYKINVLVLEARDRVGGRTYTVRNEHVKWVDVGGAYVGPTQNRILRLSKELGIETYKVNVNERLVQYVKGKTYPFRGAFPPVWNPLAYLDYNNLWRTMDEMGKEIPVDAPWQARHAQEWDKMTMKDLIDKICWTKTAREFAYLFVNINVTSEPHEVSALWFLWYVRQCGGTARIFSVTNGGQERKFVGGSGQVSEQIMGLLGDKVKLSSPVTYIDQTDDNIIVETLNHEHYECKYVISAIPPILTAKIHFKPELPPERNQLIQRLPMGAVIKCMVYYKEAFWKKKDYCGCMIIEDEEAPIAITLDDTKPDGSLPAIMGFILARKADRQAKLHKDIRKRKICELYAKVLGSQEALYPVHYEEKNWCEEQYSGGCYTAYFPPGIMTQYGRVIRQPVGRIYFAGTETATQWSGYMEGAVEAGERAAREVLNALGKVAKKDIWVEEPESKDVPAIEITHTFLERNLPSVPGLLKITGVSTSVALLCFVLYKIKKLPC
Put plainly: in vitro MAO.A inhibition on homogenized rat brain, serotonine (5-HT) substrate. The note with it: Table 1, rat brain homogenate, read-out: MAO.A inhibition effect (5-HT) IC 50. Format: biochemical, rats.
Source text: as §1

The target of data set [3] is T1, type B monoamine oxidase (MAO.B). Put plainly: ex vivo brain MAO.B inhibition after single oral dose in rats, PEA substrate. The note with it: for inhibition at 5 mg/kg / inhibition at 10 mg/kg / inhibition at 20 mg/kg: rat, po; for inhibition at 5 mg/kg: 5 mg/kg p.o.; for inhibition at 10 mg/kg: 10 mg/kg p.o.; for inhibition at 20 mg/kg: 20 mg/kg p.o. As to the method:
(§2) ex vivo, on rats to which was administered orally a single dose of the compounds of formula (I) (or their pharmaceutically acceptable salts) or their corresponding racemic of formula (Io), in a 0.5% suspension in methylcellulose, the rats being sacrificed by being beheaded at varying times, the brains being removed, weighed, homogeneized and the determination of the MAOI activity being made by using serotonine and phenylethylamine, according to the procedure described by J. P. KAN and M. STROLIN-BENEDETTI in Life Sciences 26, 2165, (1980).

In data set [4] the target is T2, type A monoamine oxidase (MAO.A). Kind of data set: ex vivo brain MAO.A inhibition after single oral dose in rats, 5-HT substrate. Particulars: for inhibition at 10 mg/kg: Table 3, 10 mg/kg p.o.; for inhibition at 20 mg/kg: Table 3, 20 mg/kg p.o. The method, then: as §2
Data set [5] in a line: oral acute toxicity in mice (Miller and Tainter's method). Format: in vivo. Particulars: mouse, in vivo, mice, oral, read-out: Acute toxicity (mice) LD 50. An excerpt:
(§3) The results obtained in the in vitro test are shown in table 1 below and the results obtained in the ex vivo test, as well as the oral acute toxicity in mice evaluated according to MILLER and TAINTER's method [Proc. Soc.

The test system of data set [6] is mice. The data set is described as above. Format: in vivo. Particulars: in words.
Source text: as §3

Where [7] appears, read: Table 3, rats, 30, unit inferred, read-out: % MAO inhibition effect after n hour(s), PEA.
Where [8] appears, read: Table 3, rats, 1 hour, read-out: % MAO inhibition effect after n hour(s), PEA.
The mark [9] stands for this setting: Table 3, rats, 2 hours, read-out: % MAO inhibition effect after n hour(s), PEA.
The mark [10] stands for this setting: Table 3, rats, 4 hours, read-out: % MAO inhibition effect after n hour(s), PEA.
Setting [11] is: Table 3, rats, 8 hours, read-out: % MAO inhibition effect after n hour(s), PEA.
Where [12] appears, read: Table 3, rats, 24 hours, read-out: % MAO inhibition effect after n hour(s), PEA.
Setting [13] is: Table 3, 5 mg/kg p.o., rats, 30, unit inferred, read-out: % MAO inhibition effect after n hour(s), 5-HT.
[14] abbreviates: Table 3, 5 mg/kg p.o., rats, 1 hour, read-out: % MAO inhibition effect after n hour(s), 5-HT.
Setting [15] is: Table 3, 5 mg/kg p.o., rats, 2 hours, read-out: % MAO inhibition effect after n hour(s), 5-HT.
The mark [16] stands for this setting: Table 3, 5 mg/kg p.o., rats, 4 hours, read-out: % MAO inhibition effect after n hour(s), 5-HT.
The mark [17] stands for this setting: Table 3, 5 mg/kg p.o., rats, 8 hours, read-out: % MAO inhibition effect after n hour(s), 5-HT.
Setting [18] is: Table 3, 5 mg/kg p.o., rats, 24 hours, read-out: % MAO inhibition effect after n hour(s), 5-HT.
Setting [19] is: rats, 2 hours, read-out: % MAO inhibition effect after n hour(s), 5-HT.
Setting [20] is: rats, 8 hours, read-out: % MAO inhibition effect after n hour(s), 5-HT.
Where [21] appears, read: rats, 24 hours, read-out: % MAO inhibition effect after n hour(s), 5-HT.

`CNCC1CN(c2ccc(OCc3cccc(Cl)c3)cc2)C(=O)O1` (racemic) [Racemic of (Ib), reference compound]: the values for the IC50 in data set [1] and in data set [2] were 0.034 µM and 14 µM, respectively. The inhibition (commonly the relative decrease from the control value, in per cent) at 5 mg/kg in data set [3] (Table 2, rats, 1 hour, read-out: % MAO inhibition effect after n hour(s), PEA (IMAO.B)) stood at 84%; in data set [3] (Table 2, rats, 2 hours, read-out: % MAO inhibition effect after n hour(s), PEA (IMAO.B)) it was 85%; in data set [3] (Table 2, rats, 4 hours, read-out: % MAO inhibition effect after n hour(s), PEA (IMAO.B)), 78%; in data set [3] (Table 2, rats, 8 hours, read-out: % MAO inhibition effect after n hour(s), PEA (IMAO.B)) it was 67%; in data set [3] (Table 2, rats, 24 hours, read-out: % MAO inhibition effect after n hour(s), PEA (IMAO.B)) it was 31%; in data set [3] (Table 2, rats, 48 hours, read-out: % MAO inhibition effect after n hour(s), PEA (IMAO.B)), 29%. Moreover, the inhibition at 5 mg/kg turned out to be 21% in data set [3] (Table 2, rats, 72 hours, read-out: % MAO inhibition effect after n hour(s), PEA (IMAO.B)); 7% in data set [4] (Table 2, 5 mg/kg p.o., rats, 1 hour, read-out: % MAO inhibition effect after n hour(s), 5-HT (IMAO.A)); 8% in data set [4] (Table 2, 5 mg/kg p.o., rats, 2 hours, read-out: % MAO inhibition effect after n hour(s), 5-HT (IMAO.A)); 10% in data set [4] (Table 2, 5 mg/kg p.o., rats, 4 hours, read-out: % MAO inhibition effect after n hour(s), 5-HT (IMAO.A)); 8% in data set [4] (Table 2, 5 mg/kg p.o., rats, 8 hours, read-out: % MAO inhibition effect after n hour(s), 5-HT (IMAO.A)); 1% in data set [4] (Table 2, 5 mg/kg p.o., rats, 24 hours, read-out: % MAO inhibition effect after n hour(s), 5-HT (IMAO.A)). Further, the inhibition at 5 mg/kg was found to be 1% in data set [4] (Table 2, 5 mg/kg p.o., rats, 48 hours, read-out: % MAO inhibition effect after n hour(s), 5-HT (IMAO.A)) and 1% in data set [4] (Table 2, 5 mg/kg p.o., rats, 72 hours, read-out: % MAO inhibition effect after n hour(s), 5-HT (IMAO.A)). In addition, in data set [5] (Table 2), the LD50 is more than 1000 mg/kg.
Consider `O=C1O[C@H](CO)CN1c1ccc(OCc2cccc(Cl)c2)cc1` [(Ia), [S(+)] 5-hydroxymethyl 3-p-(meta-chlorobenzyloxy)phenyl oxazolidine-2-one], for which the IC50 in data set [1] came out at 0.085 µM; in data set [2], 9 µM. Further, in data set [3] (in words, compared with racemic), the specificity and reversibility entry is “much greater specificity”. Besides, the level of activity result in data set [3] (in words, compared with racemic or dose) is reported as “activity increases with the dose administered”. In addition, the inhibition at 5 mg/kg in data set [3] (setting [7]) is 47%; in data set [3] (setting [8]) it was 47%; in data set [3] (setting [9]), 43%; in data set [3] (setting [10]), 30%; in data set [3] (setting [11]), 5%; in data set [3] (setting [12]), -5%. Moreover, the inhibition at 5 mg/kg is 3% in data set [4] (setting [13]); 3% in data set [4] (setting [14]); 2% in data set [4] (setting [15]); 3% in data set [4] (setting [16]); 0% in data set [4] (setting [17]); -2% in data set [4] (setting [18]). For the same compound, the inhibition at 10 mg/kg was 66% in data set [3] (setting [9]); 36% in data set [3] (setting [11]); 6% in data set [3] (setting [12]); 5% in data set [4] (setting [19]); 1% in data set [4] (setting [20]); 0% in data set [4] (setting [21]). Besides, the inhibition at 20 mg/kg in data set [3] (setting [9]) is 77%; in data set [3] (setting [11]) it was 50%; in data set [3] (setting [12]), 5%; in data set [4] (setting [19]) it was 7%; in data set [4] (setting [20]), 3%; in data set [4] (setting [21]), 0%. In data set [5] (Table 3), the LD50 is more than 1000 mg/kg. For the same compound, the “active doses relative to lethal 50 doses” value in data set [6] is “activities at doses much less than the lethal 50 doses”.
As for `O=C1OC(CO)CN1c1ccc(OCc2cccc(Cl)c2)cc1` (racemic) [Racemic of (Ia), reference compound], the IC50 in data set [1] was 0.02 µM; in data set [2] it was 0.6 µM. Moreover, the inhibition at 5 mg/kg in data set [3] (setting [7]) came to 79%; in data set [3] (setting [8]), 78%; in data set [3] (setting [9]) it was 79%; in data set [3] (setting [10]) it was 68%; in data set [3] (setting [11]), 47%; in data set [3] (setting [12]), 1%. Also, the inhibition at 5 mg/kg was determined as 21% in data set [4] (setting [13]); 18% in data set [4] (setting [14]); 20% in data set [4] (setting [15]); 9% in data set [4] (setting [16]); 0% in data set [4] (setting [17]); 2% in data set [4] (setting [18]). The LD50 in data set [5] (Table 3) was more than 1000 mg/kg.
